System: r(CUG)12-MBNL1 complex
Assay: Inhibition of the r(CUG)12-MBNL1 complex measured by TR-FRET
Assay type: biochemical
Settings: Table L; 80 nM RNA, 60 nM MBNL1-His6

| IC50 | Compound |
| --- | --- |
| 27 µM | N=C(N)Nc1ccc2nc(-c3ccc(-c4nc5ccc(NC(=N)N)cc5[nH]4)cc3)[nH]c2c1 [Compound 3, 1,1′-(2,2′-(1,4-phenylene)bis(1H-benzo[d]imidazole-6,2-diyl))diguanidine] |
| > 200 µM | CC(=O)Nc1ccc2nc(-c3ccc(-c4nc5ccc(N)cc5[nH]4)cc3)[nH]c2c1 [Compound 4, N-(2-(4-(5-amino-1H-benzo[d]imidazol-2-yl)phenyl)-1H-benzo[d]imidazol-5-yl)acetamide] |
| 76 µM | Nc1ccc2nc(-c3ccc(-c4nc5ccc(Nc6ncccn6)cc5[nH]4)cc3)[nH]c2c1 [Compound 5, 2-(4-(5-amino-1H-benzo[d]imidazol-2-yl)phenyl)-N-(pyrimidin-2-yl)-1H-benzo[d]imidazol-5-amine] |
| 112 µM | CC(=O)Nc1ccc2nc(-c3ccc(-c4nc5ccc(NC(C)=O)cc5[nH]4)cc3)[nH]c2c1 [Compound 6, N,N′-(2,2′-(1,4-phenylene)bis(1H-benzo[d]imidazole-5,2-diyl))diacetamide] |
| 80 µM | CC(=O)Nc1ccc2nc(-c3ccc(-c4nc5ccc(Nc6ncccn6)cc5[nH]4)cc3)[nH]c2c1 [Compound 7, N-(2-(4-(5-(pyrimidin-2-ylamino)-1H-benzo[d]imidazol-2-yl)phenyl)-1H-benzo[d]imidazol-5-yl)acetamide] |
| 150 µM | c1cnc(Nc2ccc3nc(-c4ccc(-c5nc6ccc(Nc7ncccn7)cc6[nH]5)cc4)[nH]c3c2)nc1 [Compound 8, 2,2′-(1,4-phenylene)bis(N-(pyrimidin-2-yl)-1H-benzo[d]imidazol-5-amine)] |
| 26 µM | N#Cc1ccc2nc(-c3ccc(-c4nc5ccc(C#N)cc5[nH]4)cc3)[nH]c2c1 [Compound 9, 2,2′-(1,4-phenylene)bis(1H-benzo[d]imidazole-6-carbonitrile)] |
| > 200 µM | COC(=O)c1ccc2nc(-c3ccc(-c4nc5ccc(C(=O)OC)cc5[nH]4)cc3)[nH]c2c1 [Compound 10, dimethyl 2,2′-(1,4-phenylene)bis(1H-benzo[d]imidazole-6-carboxylate)] |
| > 200 µM | O=C(O)c1ccc2nc(-c3ccc(-c4nc5ccc(C(=O)O)cc5[nH]4)cc3)[nH]c2c1 [Compound 11, 2,2′-(1,4-phenylene)bis(1H-benzo[d]imidazole-6-carboxylic acid)] |
| > 200 µM | NC(=O)c1ccc2nc(-c3ccc(-c4nc5ccc(C(N)=O)cc5[nH]4)cc3)[nH]c2c1 [Compound 12, 2,2′-(1,4-phenylene)bis(1H-benzo[d]imidazole-6-carboxamide)] |
| 48 µM | N#Cc1ccc2nc(-c3ccc(-c4nc5ccc(C6=NCCN6)cc5[nH]4)cc3)[nH]c2c1 [Compound 13, 2-(4-(6-(4,5-dihydro-1H-imidazol-2-yl)-1H-benzo[d]imidazol-2-yl)phenyl)-1H-benzo[d]imidazole-6-carbonitrile] |
| 11 µM | c1cc2nc(-c3ccc(-c4nc5ccc(C6=NCCN6)cc5[nH]4)cc3)[nH]c2cc1C1=NCCN1 [Compound 14, 1,4-bis(6-(4,5-dihydro-1H-imidazol-2-yl)-1H-benzo[d]imidazol-2-yl)benzene] |
| 45 µM | CN(C)CCNC(=O)c1ccc2nc(-c3ccc(-c4nc5ccc(C#N)cc5[nH]4)cc3)[nH]c2c1 [Compound 15] |
| 37 µM | CCOC(CNC(=N)Nc1ccc2nc(-c3ccc(-c4nc5ccc(N)cc5[nH]4)cc3)[nH]c2c1)OCC [Compound 17, 1-(2-(4-(5-amino-1H-benzo[d]imidazol-2-yl)phenyl)-1H-benzo[d]imidazol-5-yl)-3-(2,2-diethoxyethyl)guanidine] |
| 35 µM | CCOC(CNC(=N)Nc1ccc2nc(-c3ccc(-c4nc5ccc(NC(=N)NCC(OCC)OCC)cc5[nH]4)cc3)[nH]c2c1)OCC [Compound 18, 1,1′-(2,2′-(1,4-phenylene)bis(1H-benzo[d]imidazole-5,2-diyl))bis(3-(2,2-diethoxyethyl)guanidine)] |
| 34 µM | Nc1ccc2nc(-c3ccc(-c4nc5ccc(Nc6ncc[nH]6)cc5[nH]4)cc3)[nH]c2c1 [Compound 19, 2-(4-(5-amino-1H-benzo[d]imidazol-2-yl)phenyl)-N-(1H-imidazol-2-yl)-1H-benzo[d]imidazol-5-amine] |
| > 200 µM | c1cn(-c2ccc3nc(-c4ccc(-c5nc6ccc(-n7ccnc7)cc6[nH]5)cc4)[nH]c3c2)cn1 [Compound 20, 1,4-bis(6-(1H-imidazol-1-yl)-1H-benzo[d]imidazol-2-yl)benzene] |
| 150 µM | Nc1ccc2nc(-c3ccc(-c4nc5ccc(Nc6ccccn6)cc5[nH]4)cc3)[nH]c2c1 [Compound 21, 2-(4-(5-amino-1H-benzo[d]imidazol-2-yl)phenyl)-N-(pyridin-2-yl)-1H-benzo[d]imidazol-5-amine] |
| 169 µM | c1ccc(Nc2ccc3nc(-c4ccc(-c5nc6ccc(Nc7ccccn7)cc6[nH]5)cc4)[nH]c3c2)nc1 [Compound 22, 2,2′-(1,4-phenylene)bis(N-(pyridin-2-yl)-1H-benzo[d]imidazol-5-amine)] |
| 55 µM | CC(C)(C)OC(=O)N1CCN=C1Nc1ccc2[nH]c(-c3ccc(-c4nc5cc(N)ccc5[nH]4)cc3)nc2c1 [Compound 23, tert-butyl 2-((2-(4-(5-amino-1H-benzo[d]imidazol-2-yl)phenyl)-1H-benzo[d]imidazol-5-yl)amino)-4,5-dihydro-1H-imidazole-1-carboxylate] |
| 35 µM | Nc1ccc2[nH]c(-c3ccc(-c4nc5cc(NC6=NCCN6)ccc5[nH]4)cc3)nc2c1 [Compound 24, 2-(4-(5-amino-1H-benzo[d]imidazol-2-yl)phenyl)-N-(4,5-dihydro-1H-imidazol-2-yl)-1H-benzo[d]imidazol-5-amine] |
| 144 µM | N=C(NO)c1ccc2nc(-c3ccc(-c4nc5ccc(C(=N)NO)cc5[nH]4)cc3)[nH]c2c1 [Compound 25, 2,2′-(1,4-phenylene)bis(N-hydroxy-1H-benzo[d]imidazole-6-carboximidamide)] |

| Compound | IC50 |
| --- | --- |
| Nc1ccc2nc(-c3ccc(-c4nc5ccc(N)cc5[nH]4)cc3)[nH]c2c1 [Compound 2, 2,2′-(1,4-phenylene)bis(1H-benzo[d]imidazol-6-amine)] | 197 µM |

Same assay, conditions: Table M; 80 nM RNA, 60 nM MBNL1-His6

| IC50 | Compound |
| --- | --- |
| 8 µM | C[C@@H](NC(=O)CN(CCN)C(=O)c1ccc(-c2nc3cc(-c4ccc5[nH]c(-c6ccc(C(=O)NCCN(C)C)cc6)nc5c4)ccc3[nH]2)cc1)C(=O)N[C@H](C)C(=O)N[C@H](C)C(=O)N[C@H](C)C(=O)N(CCNC(=O)c1ccc(-c2nc3cc(-c4ccc5[nH]c(-c6ccc(C(=O)NCCN(C)C)cc6)nc5c4)ccc3[nH]2)cc1)CC(N)=O (single isomer, unassigned) [Compound 443] |
| 13 µM | C[C@@H](NC(=O)CNCCNC(=O)c1ccc(-c2nc3cc(-c4ccc5[nH]c(-c6ccc(C(=O)NCCN(C)C)cc6)nc5c4)ccc3[nH]2)cc1)C(=O)N[C@H](C)C(=O)N[C@H](C)C(=O)N[C@H](C)C(=O)N(CCNC(=O)c1ccc(-c2nc3cc(-c4ccc5[nH]c(-c6ccc(C(=O)NCCN(C)C)cc6)nc5c4)ccc3[nH]2)cc1)CC(N)=O (single isomer, unassigned) [Compound 444] |
| 49.1 µM | CN(CCNC(=O)c1ccc2nc(-c3ccc(-c4nc5ccc(C(=O)NCCN(C)C[C@H](O)[C@@H](O)[C@H](O)[C@H](O)CO)cc5[nH]4)cc3)[nH]c2c1)CC(O)C(O)C(O)C(O)CO (stereo in doubt) [Compound 175, 2,2′-(1,4-phenylene)bis(N-(2-(methyl((2S,3R,4R,5R)-2,3,4,5,6-pentahydroxyhexyl)amino)ethyl)-1H-benzo[d]imidazole-6-carboxamide)] |
